Reference: patent US20050130909A1 (priority 2002, published 2005)

What was measured:
[1] = test system: human α-glycoprotein; test: Protein binding by ITC; conditions: protein […]10^−5 M assumed
[2] = biological target: human albumin (Homo sapiens, UniProt P02768); test: Protein binding by isothermal titration microcalorimetry (ITC); conditions: for Calculated percent Binding to Human albumin: albumin 6×10^−4 M assumed
[3] = ESI-MS analysis of multimers in solution; conditions: dalbavancin 0.1 mg/ml in 8:2 water:isopropanol; teicoplanin 50 and 100 μg/mL in water
Experimental: Experiments were performed using an Applied Biosystem API III+ mass spectrometer equipped with a TurboIonSpray source, a Triple Quadrupole analyzer, operating in positive ion mode.
The mass spectra were obtained in electrospray positive mode on a Finnigan LCQ^Deca ion trap instrument previously tuned and calibrated in electrospray mode using Ultramark 1621, caffeine and MRFA (L-metionyl-arginyl-phenilalanyl-arginine).

[4] = test system: Lys-D-Ala-D-Lactate; test: ITC, preliminary experiments; type: binding; conditions: absence of serum proteins
[5] = test system: dipeptide (D-Ala-D-Ala); test: ITC, preliminary experiments; type: binding; conditions: absence of serum proteins
[6] = test system: N,N′-diacetyl-Lys-D-Ala-D-Ala; test: ITC of binding to tri-peptide cell-wall analog, with and without HSA; conditions: control ITC experiments with HSA
Experimental: Peptide concentrations were determined by weight.
Trans. R. Soc. Lond. Ser. A-Math. Phys. Eng. […] Wiley, (1998) p 103-111; and Cooper, A., Curr. Opin. Chem. Biol. (1999) 3, 557-563.

[7] = Rat mass balance study; type: in vivo, Sprague-Dawley rats
Experimental: Mass balance studies were conducted to determine the excretion pattern of dalbavancin following a single intravenous (IV) infusion of dalbavancin in male rats.
Water and methanol cage washes were also collected.

human albumin, sequence (P02768 25-609): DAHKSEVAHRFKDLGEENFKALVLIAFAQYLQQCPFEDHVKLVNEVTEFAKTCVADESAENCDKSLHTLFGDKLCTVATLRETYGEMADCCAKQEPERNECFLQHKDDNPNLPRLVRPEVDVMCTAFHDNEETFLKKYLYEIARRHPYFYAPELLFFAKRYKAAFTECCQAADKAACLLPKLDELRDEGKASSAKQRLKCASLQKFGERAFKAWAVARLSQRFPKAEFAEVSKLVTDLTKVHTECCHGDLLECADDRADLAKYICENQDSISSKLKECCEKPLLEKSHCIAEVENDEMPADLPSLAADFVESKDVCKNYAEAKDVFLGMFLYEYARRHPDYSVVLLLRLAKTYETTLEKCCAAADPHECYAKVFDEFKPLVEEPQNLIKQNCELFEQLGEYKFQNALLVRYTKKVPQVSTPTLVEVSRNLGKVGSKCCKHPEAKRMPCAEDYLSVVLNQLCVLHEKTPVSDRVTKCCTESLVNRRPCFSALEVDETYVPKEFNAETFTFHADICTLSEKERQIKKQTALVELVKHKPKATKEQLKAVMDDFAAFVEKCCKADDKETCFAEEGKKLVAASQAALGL

For Teicoplanin [reference compound], the “Calculated percent Binding to Human α-glycoprotein” value ([1]; antibiotic 1 μM) was 9.6%, the “Calculated percent Binding to Human α-glycoprotein” value ([1]; antibiotic 10 μM) was 9.1% and the “Calculated percent Binding to Human α-glycoprotein” value ([1]; antibiotic 100 μM) was 6.0%. The “Calculated percent Binding to Human albumin” value ([2]; antibiotic 1 μM) was 98.3%, the “Calculated percent Binding to Human albumin” value ([2]; antibiotic 10 μM) was 98.3% and the “Calculated percent Binding to Human albumin” value ([2]; antibiotic 100 μM) was 98.0%. For the same compound, the “Binding stoichiometry antibiotic:protein” value ([2]; binding stoichiometry modeling of ITC data) was 1:1 binding and the Multimers in solution [3] was “does not show multimeric complexes in solution”.
In the case of `CN[C@H](CC(C)C)C(=O)N[C@H]1C(=O)N[C@@H](CC(N)=O)C(=O)N[C@H]2C(=O)N[C@H]3C(=O)N[C@H](C(=O)N[C@H](C(=O)O)c4cc(O)cc(O)c4-c4cc3ccc4O)[C@H](O)c3ccc(c(Cl)c3)Oc3cc2cc(c3O[C@@H]2O[C@H](CO)[C@@H](O)[C@H](O)[C@H]2O[C@H]2C[C@](C)(N)[C@H](O)[C@H](C)O2)Oc2ccc(cc2Cl)[C@H]1O` [vancomycin, reference compound], the “Binding to Lys-D-Ala-D-Lactate” value [4] is reported as “no evidence of binding”, the “Binding to dipeptide (D-Ala-D-Ala)” value [5] is reported as “no evidence of binding” and the “Binding to tri-peptide in the presence of HSA (control)” value [6] is reported as “comparable to those seen in the absence of HSA”.
In the case of `CN[C@H]1C(=O)N[C@@H]2Cc3ccc(cc3)Oc3cc4cc(c3O[C@@H]3O[C@H](C(=O)O)[C@@H](O)[C@H](O)[C@H]3NC(=O)CCCCCCCCC(C)C)Oc3ccc(cc3Cl)[C@@H](O)[C@@H]3NC(=O)[C@H](NC(=O)[C@@H]4NC(=O)[C@@H](NC2=O)c2cc(cc(O)c2Cl)Oc2cc1ccc2O)c1ccc(O)c(c1)-c1c(O[C@H]2O[C@H](CO)[C@@H](O)[C@H](O)[C@@H]2O)cc(O)cc1[C@@H](C(=O)NCCCN(C)C)NC3=O` [^3H-dalbavancin], the “Dose remaining in the carcass” value ([7]; 70 days post dose, mass balance study) is reported as 4.5 % of the dose and the “Plasma t1/2” value ([7]; rats, single IV 20 mg/kg) is reported as “approximately 1 week”.
